Measured values: patent US8148428B2 (priority 2006, dated 2012)
Read-outs that look alike come from different tables or passages of the source.

Key:
[1] = system: Lassa GP-pseudotyped-virus; experiment: microbe, parasite or virus in culture; type: cell-based, Lassa fever virus; parameters: Activity against Lassa GP-pseudotyped-virus specificity: reference not given here
[2] = system: Lassa fever virus (Josiah strain); experiment: organism not typed; type: cell-based; conditions: for EC50: read-out: Activity vs. LFV EC50
[3] = system: Tacaribe envelope pseudotyped virus; experiment: organism not typed; type: cell-based; conditions: read-out: EC50, pseudotyped viral infection, Tacaribe envelope
[4] = system: Guanarito envelope pseudotyped virus; experiment: organism not typed; type: cell-based; conditions: read-out: EC50, pseudotyped viral infection, Guanarito envelope
[5] = Human immunodeficiency virus 1, read-out: Activity against Lassa GP-pseudotyped-virus EC50

SMILES: C/C(=N\NC(=O)C1CC1c1ccccc1)c1ccc(C)cc1 (stereo not drawn) [Compound 600124, 2-Phenyl-cyclopropanecarboxylic acid [1-p-tolyl-eth-(E)-ylidene]-hydrazide]
- Activity against Lassa GP-pseudotyped-virus specificity [1]: >700
- EC50 [1, 5]: < 30 nM

SMILES: C/C(=N\NC(=O)CCc1ccccc1)c1cccc(N)c1 [Compound 600090, 3-Phenyl-propionic acid [1-(3-amino-phenyl)-eth-(E)-ylidene]-hydrazide]
- Activity against Lassa GP-pseudotyped-virus specificity [1]: >18
- EC50 [1, 5]: 1600 nM

SMILES: O=C1Nc2ccc([N+](=O)[O-])cc2/C1=N/NC(=O)C1CC1c1ccccc1 (stereo not drawn) [Compound 600155, 2-Phenyl-cyclopropanecarboxylic acid [5-nitro-2-oxo-1,2-dihydro-indol-(3Z)-ylidene]-hydrazide]
- Activity against Lassa GP-pseudotyped-virus specificity [1]: >40
- EC50 [1, 5]: 300 nM

SMILES: C/C(=N/NC(=O)C1CC1c1ccccc1)c1cccs1 (stereo not drawn) [Compound 600093, 2-Phenyl-cyclopropartecarboxylic acid [1-thiophen-2-yl-eth-(Z)-ylidene]-hydrazide]
- Activity against Lassa GP-pseudotyped-virus specificity [1]: 2
- EC50 [1, 5]: 14000 nM

SMILES: C/C(=N/NC(=O)C1CC1c1ccccc1)c1ccccc1Cl (stereo not drawn) [Compound 600092, 2-Phenyl-cyclopropanecarboxylic acid [1-(2-chloro-phenyl)-eth-(Z)-ylidene]-hydrazide]
- Activity against Lassa GP-pseudotyped-virus specificity [1]: 20
- EC50 [1, 5]: 200 nM

SMILES: C/C(=N/NC(=O)C1CC1c1ccccc1)c1ccc2c3c(cccc13)CC2 (stereo not drawn) [Compound 600156]
- Activity against Lassa GP-pseudotyped-virus specificity [1]: none
- EC50 [1, 5]: 2000 nM

SMILES: COc1ccc(/C(C)=N/NC(=O)C2CC2c2ccccc2)c(OC)c1 (stereo not drawn) [Compound 600120, 2-Phenyl-cyclopropanecarboxylic acid [1-(2,4-dimethoxy-phenyl)-eth-(E)-ylidene]-hydrazide]
- Activity against Lassa GP-pseudotyped-virus specificity [1]: 180
- EC50 [1, 5]: 120 nM

SMILES: COc1ccc(C(C)=NNC(=O)C2CC2c2ccccc2)cc1 (stereo in doubt) [Compound 600180, 2-Phenyl-cyclopropanecarboxylic acid [1-(4-methoxy-phenyl)-eth-(Z)-ylidene]-hydrazide]
- Activity against Lassa GP-pseudotyped-virus specificity [1]: >4000
- EC50 [1, 5]: < 3 nM

SMILES: C/C(=N\NC(=O)C1CC1c1ccccc1)c1ccc(N(C)C)cc1 (stereo not drawn) [Compound 600178, 2-Phenyl-cyclopropanecarboxylic acid [1-(4-dimethylamino-phenyl)-eth-(E)-ylidene]-hydrazide]
- Activity against Lassa GP-pseudotyped-virus specificity [1]: >4000
- EC50 [1, 5]: < 3 nM

SMILES: CC(=O)Nc1ccc(/C(C)=N/NC(=O)C2CC2c2ccccc2)cc1 (stereo not drawn) [Compound 600184, N-(4-[1-[(2-phenyl-cyclopropanecarbonyl)-hydrazono]-ethyl}-phenyl)-acetamide]
- Activity against Lassa GP-pseudotyped-virus specificity [1]: >3000
- EC50 [1, 5]: 3 nM

SMILES: C/C(=N\NC(=O)C1CC1c1ccccc1)c1ccc(-c2ccccc2)cc1 (stereo not drawn) [Compound 600152, 2-Phenyl-cyclopropanecarboxylic acid [1-biphenyl-4-yl-eth-(E)-ylidene]-hydrazide]
- Activity against Lassa GP-pseudotyped-virus specificity [1]: >8000
- EC50 [1, 5]: 1 nM

SMILES: C/C(=N/NC(=O)C1CC1c1ccc(C(C)(C)C)cc1)c1cccc(NC(=O)c2ccccc2F)c1 (stereo not drawn) [Compound 600182, N-[3-(1-[[2-(4-tert-Butyl-phenyl)-cyclopropanecarbonyl]-hydrazono]-ethyl)-phenyl]-2-fluoro-benzamide]
- Activity against Lassa GP-pseudotyped-virus specificity [1]: >15
- EC50 [1, 5]: 800 nM

SMILES: C/C(=N\NC(=O)C1CC1c1ccccc1)C1CC1 (stereo not drawn) [Compound 600086, 2-Phenyl-cyclopropanecarboxylic acid [1-cyclopropyl-eth-(E)-ylidene]-hydrazide]
- Activity against Lassa GP-pseudotyped-virus specificity [1]: >2
- EC50 [1, 5]: 10000 nM

SMILES: CC(C)/C(=N\NC(=O)C1CC1c1ccccc1)c1ccccc1 (stereo not drawn) [Compound 600123]
- Activity against Lassa GP-pseudotyped-virus specificity [1]: 60
- EC50 ([1]; read-out: Activity against Lassa GP-pseudotyped-virus EC50): 200 nM

SMILES: C/C(=N/NC(=O)C1CC1c1ccccc1)c1ccc(NC(=O)c2ccc(Cl)cc2Cl)cc1 (stereo not drawn) [Compound 600162, 2,4-Dichloro-N-(4-[1-[(2-Phenyl-cyclopropanecarbonyl)-hydrazono]ethyl]-phenyl)-benzamide]
- Activity against Lassa GP-pseudotyped-virus specificity [1]: >4000
- EC50 [1, 5]: < 3 nM

SMILES: Cc1ccc2c(c1Br)C(=NNC(=O)C1CC1c1ccccc1)C(=O)N2 (stereo not drawn) [Compound 600140, 2-Phenyl-cyclopropanecarboxylic acid [4-bromo-5-methyl-2-oxo-1,2-dihydro-indol-(3E)-ylidene]-hydrazide]
- Activity against Lassa GP-pseudotyped-virus specificity [1]: >30
- EC50 [1, 5]: 300 nM

SMILES: C/C(=N/NC(=O)C1CC1c1ccc(C(C)(C)C)cc1)c1ccc(F)cc1 (stereo not drawn) [Compound 600197, 2-(4-tert-Butyl-phenyl)-cyclopropanecarboxylic acid [1-(4-fluoro-phenyl)-eth-(Z)-ylidene]-hydrazide]
- Activity against Lassa GP-pseudotyped-virus specificity [1]: 650
- EC50 [1, 5]: 20 nM

SMILES: C/C(=N\NC(=O)C1CC1c1ccccc1)c1ccccc1O (stereo not drawn) [Compound 600176, 2-Phenyl-cyclopropanecarboxylic acid [1-(2-hydroxy-phenyl)-eth-(E)-ylidene]-hydrazide]
- Activity against Lassa GP-pseudotyped-virus specificity [1]: >14
- EC50 [1, 5]: 800 nM

SMILES: CCOC(=O)C/C(C)=N/NC(=O)C1CC1c1ccccc1 (stereo not drawn) [Compound 600091, 3-[(2-Phenyl-cyclopropanecarbonyl)-hydrazono]-butyric acid ethyl ester]
- Activity against Lassa GP-pseudotyped-virus specificity [1]: >18
- EC50 [1, 5]: 1600 nM

SMILES: C/C(=N/NC(=O)C1CC1c1ccccc1)c1ccc(NC(=O)C2CC2)cc1 (stereo not drawn) [Compound 600100, Cyclopropanecarboxylic acid (4-[1-[(2-phenyl-cyclopropanecarbonyl)-hydrazono]-ethyl]-phenyl)-amide]
- EC50 [2]: < 400 nM
- Activity against Lassa GP-pseudotyped-virus specificity [1]: >20,000
- EC50 [1, 5]: 2 nM

SMILES: C/C(=N\NC(=O)C1CC1c1ccccc1)c1ccc(NC(=O)c2ccc(Cl)s2)cc1 (stereo not drawn) [Compound 600183, 5-Chloro-thiophene-2-carboxylic acid (4-[1-[(2-phenyl-cyclopropanecarbonyl)-hydrazono]-ethyl]-phenyl)-amide]
- Activity against Lassa GP-pseudotyped-virus specificity [1]: >4000
- EC50 [1, 5]: < 3 nM

SMILES: C/C(=N\NC(=O)C1CC1c1ccccc1)c1cccc(NC(=O)c2ccccc2F)c1 (stereo not drawn) [Compound 600185]
- Activity against Lassa GP-pseudotyped-virus specificity [1]: >1.3
- EC50 [1, 5]: 9000 nM

SMILES: C/C(=N/NC(=O)C1CC1c1ccccc1)c1ccc(NC(=O)C(F)(F)F)cc1 (stereo not drawn) [Compound 600187, 2,2,2-Trifluoro-N-(4-[1-[(2-phenyl-cyclopropanecarbonyl)-hydrazono]-ethyl]-phenyl)-acetamide]
- Activity against Lassa GP-pseudotyped-virus specificity [1]: >4000
- EC50 [1, 5]: 3 nM

SMILES: C/C(=N\NC(=O)C1CC1c1ccccc1)c1ccc(C2CCCCC2)cc1 (stereo not drawn) [Compound 600181, 2-Phenyl-cyclopropanecarboxylic acid [1-(4-cyclohexyl-phenyl)-eth-(E)-ylidene]-hydrazide]
- Activity against Lassa GP-pseudotyped-virus specificity [1]: >400
- EC50 [1, 5]: 20 nM

SMILES: O=C1Nc2ccccc2/C1=N\NC(=O)C1CC1c1ccccc1 (stereo not drawn) [Compound 600087, 2-Phenyl-cyclopropanecarboxylic acid [2-oxo-1,2-dihydro-indol-(3E)-ylidene]-hydrazide]
- Activity against Lassa GP-pseudotyped-virus specificity [1]: >700
- EC50 [1, 5]: 40 nM

SMILES: C/C(=N\NC(=O)C1CC1c1ccccc1)c1ccc(NC(=O)c2ccco2)cc1 (stereo not drawn) [Compound 600161, Furan-2-carboxylic acid (4-[1-[(2-phenyl-cyclopropanecarbonyl)-hydrazono]-ethyl]-phenyl)-amide]
- EC50 [3]: 800 nM
- EC50 [4]: 300 nM
- Activity vs. LFV T.I. (therapeutic index) [2]: >2000
- EC50 [2]: < 20 nM
- Activity against Lassa GP-pseudotyped-virus specificity [1]: >90,000
- EC50 [1, 5]: 0.5 nM

SMILES: COc1ccc(/C(C)=N\NC(=O)C2CC2c2ccc(C(C)(C)C)cc2)cc1[N+](=O)[O-] (stereo not drawn) [Compound 600198, 2-(4-tert-Butyl-phenyl)-cyclopropanecarboxylic acid [1-(4-methoxy-3-nitro-phenyl)-eth-(Z)-ylidene]-hydrazide]
- Activity against Lassa GP-pseudotyped-virus specificity [1]: >800
- EC50 [1, 5]: 14 nM

SMILES: O=C(N/N=C/c1ccccc1)[C@H]1C[C@@H]1c1ccccc1 [Compound 600075, (1S,2S)-2-Phenyl-cyclopropanecarboxylic acid [1-phenyl-meth-(E)-ylidene]-hydrazide]
- EC50 [1, 5]: > 30000 nM

SMILES: COc1ccc(/C(C)=N/NC(=O)C2CC2c2ccccc2)cc1OC (stereo not drawn) [Compound 600154, 2-Phenyl-cyctopropanecarboxylic acid [1-(3,4-dimethoxy-phenyl)-eth-(E)-ylidene]-hydrazide]
- Activity against Lassa GP-pseudotyped-virus specificity [1]: >50
- EC50 [1, 5]: 200 nM

SMILES: C/C(=N\NC(=O)C1CC1c1ccccc1)c1ccc(N)cc1 (stereo not drawn) [Compound 408306, 2-Phenyl-cyclopropanecarboxylic acid [1-(4-amino-phenyl)-eth-(E)-ylidene]-hydrazide]
- Activity vs. LFV T.I. (therapeutic index) [2]: >100
- EC50 [2]: 500 nM
- Activity against Lassa GP-pseudotyped-virus specificity [1]: >2000
- EC50 [1, 5]: 20 nM
